# From patent publication US20020198127A1, “Liquid cleaning compositions and their use” (Unilever Home & Personal Care USA, Division of Conopco, Inc., priority 2001, published 2002)
# Test system: protease enzyme
# Assay: % residual activity (RA) of the protease enzyme in liquid detergent composition after storage at 37° C.
# Type: biochemical
# Conditions: for Avg. RA (%): 37° C.; for protease stability versus control, in words: Examples 1-3, storage at 37° C. up to 56 days
# Protocol: All catalysts dosed at 0.1% by weight on tope of the composition except complex G. This catalyst was dosed at 0.06 weight %.
# In all cases, the pH of the composition was 7.2.
# The % residual activity (RA) of the protease enzyme after storage at 37° C. was measured up to 56 days for the compositions of Examples 1-4 alone (controls), for the same compositions with 0.1% by weight of the complex B added and the same compositions with only the free ligand A added on top of the formulation (on a mole equivalent basis of the amount of the ligand in 0.1% by weight of complex B).
# In Examples 4-9, 11 and 12, the pH of the composition was 7.2.
# In Example 10, the pH of the composition was 8.0.
smiles,measurement,setting,value
"CC(c1ccccn1)(c1ccccn1)N(Cc1ccccn1)Cc1ccccn1.O.O.[Cl-].[Cl-].[Fe+2] [Complex B, [Fe(MeN4py)Cl]Cl.2H20]",Avg. RA (%),"Ex. 1 composition pH 7.2, +0.1% Complex B, day 0",100.0%
same,Avg. RA (%),"Ex. 1 composition pH 7.2, +0.1% Complex B, day 3",93.7%
same,Avg. RA (%),"Ex. 1 composition pH 7.2, +0.1% Complex B, day 7",84.1%
same,Avg. RA (%),"Ex. 1 composition pH 7.2, +0.1% Complex B, day 14",93.9%
same,Avg. RA (%),"Ex. 1 composition pH 7.2, +0.1% Complex B, day 28",79.0%
same,Avg. RA (%),"Ex. 1 composition pH 7.2, +0.1% Complex B, day 56",71.3%
same,Avg. RA (%),"Ex. 2 composition pH 7.2, +0.1% Complex B, day 0",100.0%
same,Avg. RA (%),"Ex. 2 composition pH 7.2, +0.1% Complex B, day 3",92.2%
same,Avg. RA (%),"Ex. 2 composition pH 7.2, +0.1% Complex B, day 7",87.1%
same,Avg. RA (%),"Ex. 2 composition pH 7.2, +0.1% Complex B, day 14",80.4%
same,Avg. RA (%),"Ex. 2 composition pH 7.2, +0.1% Complex B, day 28",89.7%
same,Avg. RA (%),"Ex. 2 composition pH 7.2, +0.1% Complex B, day 56",75.4%
same,Avg. RA (%),"Ex. 3 composition pH 7.2, +0.1% Complex B, day 0",100.0%
same,Avg. RA (%),"Ex. 3 composition pH 7.2, +0.1% Complex B, day 3",79.0%
same,Avg. RA (%),"Ex. 3 composition pH 7.2, +0.1% Complex B, day 7",74.0%
same,Avg. RA (%),"Ex. 3 composition pH 7.2, +0.1% Complex B, day 14",64.9%
same,Avg. RA (%),"Ex. 3 composition pH 7.2, +0.1% Complex B, day 28",59.8%
same,Avg. RA (%),"Ex. 3 composition pH 7.2, +0.1% Complex B, day 56",48.7%
same,Avg. RA (%),"Example 4 composition (with sorbitol) pH 7.2, +0.1% Complex B, day 0",100.0%
same,Avg. RA (%),"Example 4 composition (with sorbitol) pH 7.2, +0.1% Complex B, day 7",98%
same,Avg. RA (%),"Example 4 composition (with sorbitol) pH 7.2, +0.1% Complex B, day 14",97%
same,Avg. RA (%),"Example 4 composition (with sorbitol) pH 7.2, +0.1% Complex B, day 28",92%
same,Avg. RA (%),"Example 10 composition pH 8.0, +0.1% Complex B, day 0",100.0%
same,Avg. RA (%),"Example 10 composition pH 8.0, +0.1% Complex B, day 3",92%
same,Avg. RA (%),"Example 10 composition pH 8.0, +0.1% Complex B, day 7",91%
same,Avg. RA (%),"Example 10 composition pH 8.0, +0.1% Complex B, day 14",86%
same,Avg. RA (%),"Example 10 composition pH 8.0, +0.1% Complex B, day 28",83%
same,"protease stability versus control, in words",,improvement in stability
"CC(c1ccccn1)(c1ccccn1)N(Cc1ccccn1)Cc1ccccn1 [Ligand A, N,N-bis(pyridin-2-yl-methyl)-1,1-bis(pyridin-2-yl)-1-aminoethane]",Avg. RA (%),"Ex. 1 composition pH 7.2, +0.1% mole equiv. Ligand A, day 0",100.0%
same,Avg. RA (%),"Ex. 1 composition pH 7.2, +0.1% mole equiv. Ligand A, day 3",85.0%
same,Avg. RA (%),"Ex. 1 composition pH 7.2, +0.1% mole equiv. Ligand A, day 7",63.9%
same,Avg. RA (%),"Ex. 1 composition pH 7.2, +0.1% mole equiv. Ligand A, day 14",48.8%
same,Avg. RA (%),"Ex. 1 composition pH 7.2, +0.1% mole equiv. Ligand A, day 28",38.0%
same,Avg. RA (%),"Ex. 1 composition pH 7.2, +0.1% mole equiv. Ligand A, day 56",18.4%
same,Avg. RA (%),"Ex. 2 composition pH 7.2, +0.1% mole equiv. Ligand A, day 0",100.0%
same,Avg. RA (%),"Ex. 2 composition pH 7.2, +0.1% mole equiv. Ligand A, day 3",70.7%
same,Avg. RA (%),"Ex. 2 composition pH 7.2, +0.1% mole equiv. Ligand A, day 7",63.1%
same,Avg. RA (%),"Ex. 2 composition pH 7.2, +0.1% mole equiv. Ligand A, day 14",46.9%
same,Avg. RA (%),"Ex. 2 composition pH 7.2, +0.1% mole equiv. Ligand A, day 28",29.3%
same,Avg. RA (%),"Ex. 2 composition pH 7.2, +0.1% mole equiv. Ligand A, day 56",13.0%
same,Avg. RA (%),"Ex. 3 composition pH 7.2, +0.1% mole equiv. Ligand A, day 0",100.0%
same,Avg. RA (%),"Ex. 3 composition pH 7.2, +0.1% mole equiv. Ligand A, day 3",72.0%
same,Avg. RA (%),"Ex. 3 composition pH 7.2, +0.1% mole equiv. Ligand A, day 7",53.0%
same,Avg. RA (%),"Ex. 3 composition pH 7.2, +0.1% mole equiv. Ligand A, day 14",32.3%
same,Avg. RA (%),"Ex. 3 composition pH 7.2, +0.1% mole equiv. Ligand A, day 28",18.6%
same,Avg. RA (%),"Ex. 3 composition pH 7.2, +0.1% mole equiv. Ligand A, day 56",5.2%
same,"protease stability versus control, in words",,improvement in stability
"F[P-](F)(F)(F)(F)F.F[P-](F)(F)(F)(F)F.[Fe+2].c1ccc(CN(CCN(Cc2ccccn2)Cc2ccccn2)Cc2ccccn2)nc1 [Complex G, [Fe(tpen)] (PF6)2]",Avg. RA (%),"Example 8 composition pH 7.2, +0.06% Complex G, day 0",100.0%
same,Avg. RA (%),"Example 8 composition pH 7.2, +0.06% Complex G, day 7",97%
same,Avg. RA (%),"Example 8 composition pH 7.2, +0.06% Complex G, day 14",89%
same,Avg. RA (%),"Example 8 composition pH 7.2, +0.06% Complex G, day 28",77%
"CN1CCCN2CCN(C)CCCN(CC1)CC2 [Complex I, 5,12-dimethyl-1,5,8,12-tetraazabicyclo[6.6.2] hexadecane]",Avg. RA (%),"Example 12 composition pH 7.2, +0.1% Complex I, day 0",100.0%
same,Avg. RA (%),"Example 12 composition pH 7.2, +0.1% Complex I, day 7",84%
same,Avg. RA (%),"Example 12 composition pH 7.2, +0.1% Complex I, day 14",78%
same,Avg. RA (%),"Example 12 composition pH 7.2, +0.1% Complex I, day 28",67%
[Cl-].[Cl-].[Fe+2].c1ccc(CN(Cc2ccccn2)C(c2ccccn2)c2ccccn2)nc1 [Complex C],Avg. RA (%),"Example 5 composition pH 7.2, +0.1% Complex C, day 0",100.0%
same,Avg. RA (%),"Example 5 composition pH 7.2, +0.1% Complex C, day 7",98%
same,Avg. RA (%),"Example 5 composition pH 7.2, +0.1% Complex C, day 14",91%
same,Avg. RA (%),"Example 5 composition pH 7.2, +0.1% Complex C, day 28",78%
"CN1CCN(C)CCN(C)CC1.CN1CCN(C)CCN(C)CC1.F[P-](F)(F)(F)(F)F.F[P-](F)(F)(F)(F)F.[Mn+4].[Mn+4].[O-2].[O-2].[O-2] [Complex E, [Mn2(1,4,7-trimethyl-1,4,7-triazacyclononane)2(μ-O)3] (PF6)2]",Avg. RA (%),"Example 7 composition pH 7.2, +0.1% Complex E, day 0",100.0%
same,Avg. RA (%),"Example 7 composition pH 7.2, +0.1% Complex E, day 7",93%
same,Avg. RA (%),"Example 7 composition pH 7.2, +0.1% Complex E, day 14",87%
same,Avg. RA (%),"Example 7 composition pH 7.2, +0.1% Complex E, day 28",80%
"F[P-](F)(F)(F)(F)F.[Cl-].[Fe+2].c1ccc(CNCCN(Cc2ccccn2)Cc2ccccn2)nc1 [Complex D, [Fe(trispicenNH)Cl]PF6]",Avg. RA (%),"Example 6 composition pH 7.2, +0.1% Complex D, day 0",100.0%
same,Avg. RA (%),"Example 6 composition pH 7.2, +0.1% Complex D, day 7",100%
same,Avg. RA (%),"Example 6 composition pH 7.2, +0.1% Complex D, day 14",92%
same,Avg. RA (%),"Example 6 composition pH 7.2, +0.1% Complex D, day 28",74%
"c1ccc(CN(CCN(Cc2ccccn2)Cc2ccccn2)Cc2ccccn2)nc1 [Ligand F, N,N,N′,N′-tetrakis(pyridin-2ylmethyl)ethylenediamine]",Avg. RA (%),"Example 11 composition pH 7.2, +0.1% Ligand F, day 0",100.0%
same,Avg. RA (%),"Example 11 composition pH 7.2, +0.1% Ligand F, day 7",85%
same,Avg. RA (%),"Example 11 composition pH 7.2, +0.1% Ligand F, day 14",76%
same,Avg. RA (%),"Example 11 composition pH 7.2, +0.1% Ligand F, day 28",63%
"COC(=O)C12CN(Cc3ccccn3)CC(C(=O)OC)(C1=O)C(c1ccccn1)N(C)C2c1ccccn1.O.[Cl][Fe][Cl] (stereo not drawn) [Complex H, Chloro(dimethyl 2,4-di-(2-pyridyl)-3-methyl-7-(pyridin-2-ylmethyl)-3,7-diaza-bicyclo[3.3.1]nonan-9-one-1,5-dicarboxylate)iron(II)-chloride hydrate]",Avg. RA (%),"Example 9 composition pH 7.2, +0.1% Complex H, day 0",100.0%
same,Avg. RA (%),"Example 9 composition pH 7.2, +0.1% Complex H, day 7",93%
same,Avg. RA (%),"Example 9 composition pH 7.2, +0.1% Complex H, day 14",91%
same,Avg. RA (%),"Example 9 composition pH 7.2, +0.1% Complex H, day 28",88%
